Laboratory results: US20240041733A1, “DENTAL CARE COMPOSITION AND METHOD OF PROMOTING CALCIFICATION IN LIVING BODY TISSUE” (KINJIRUSHI CO., LTD., priority 2020, published 2024)
“Also recorded” adds a separate entry of the source.

Assays:
[1] = tested on: Human odontoblast (HOB) cells; assay: Evaluation of calcification promoting action using human odontoblasts (Alizarin red and von Kossa staining); type: cell-based; settings: for calcification promoting action: calcification medium with additive, Alizarin red / von Kossa staining; for relative calcification promoting action (comparison among compounds): compared by concentration of particularly high action and by extent of staining at 50 μM
Protocol: 1. Cultivation of Human Odontoblast (Human Odontoblast (HOB) Cells)
HOB cells are seeded in a T75 flask and cultivated until confluency was achieved. A culture medium (hereinafter referred to as “regular medium”) was prepared by adding 10% of fetal bovine serum (FBS) (Life Technologies Ltd.; Product No. 10437-028), 1% of penicillin-streptomycin (Life Technologies Ltd.; Product No. 15140-122), 1% of amphotericin B (Sigma-Aldrich, Product No. A2942-100ML) to MEMα (Life Technologies Ltd.; Product No. 12561-049, 12561-056). Cultivation was performed under an environment with a temperature of 37° C. and 5% of CO2.
Then the HOB Cells were seeded on an adherent cell cultivation plate (Sumitomo Bakelite Co., Ltd) such that the cell density per 1 well was 1.78 to 2.56×10^5 cells/mL, and cultivated under the same environment. As the adherent cell cultivation plate, plates having 6 to 96 wells were appropriately used.
Four days later, each culture medium was changed from the regular medium to a calcification medium, or to a culture medium (hereinafter, referred to as “additive containing calcification medium”) prepared by adding additional components shown in the following Table 4 and Table 5 to the calcification medium so as to achieve the concentrations shown in Table 4 and Table 5. The calcification medium is prepared by adding L (+)-ascorbic acid (Wako Pure Chemical Industries, Ltd. (currently Fujifilm Wako Pure Chemical Corporation), Product No. 016-04805) to the aforementioned regular mediums such that the concentration in the calcification medium (that is, the final concentration) was 50 μg/mL, and by adding β-glycerophosphoric acid (Fujifilm Wako Pure Chemical Corporation, Product No. 191-02042) to the aforementioned regular mediums such that the concentration in the calcification medium (that is, the final concentration) is 10 mM.
Then, the cultivation was performed under the environment at 37° C. with 5% of CO2 for 21 or 28 days while exchanging the calcification medium or the additive containing calcification medium twice a week. Then the following staining was performed.
Alizarin red staining and von Kossa staining were performed to evaluate calcification promoting effect.
Each well was washed twice using Dulbecco's phosphate buffered saline (DPBS) (Life Technologies Ltd.; Product No. 14190-144) the amount of which was equal to the specified amount of culture medium in the adherent cell cultivation plate. After removing the DPBS from each well, 4% paraformaldehyde phosphate buffer solution (Fujifilm Wako Pure Chemical Corporation, Product No. 163-20145), the amount of which was equal to a half the amount of the specified amount of the culture medium, was introduced to each well, and each well was left for five minutes at a room temperature.
Then, each well was washed twice using the DPBS the amount of which was equal to the specified amount of the culture medium. After removing the DPBS from each well, Alizarin red staining solution, the amount of which was equal to a half the amount of the specified amount of the culture medium, was introduced to each well, and each well was left for ten minutes. The Alizarin red staining solution was prepared by dissolving a commercially available staining solution (Product name: “Alizarin red S”, Wako Pure Chemical Industries, Ltd. (currently Fujifilm Wako Pure Chemical Corporation), Product No. 011-01192) with ultrapure water (Milli-Q (registered trademark) water), and the pH was adjusted to be within a range from 6.36 to 6.40 using ammonium hydroxide solution.
Each well was then washed five times using the ultrapure water (same as above), the amount of which was equal to the specified amount of the culture medium.
Each well was washed three times using the Dulbecco's phosphate buffered saline (DPBS) (same as above) the amount of which was equal to the specified amount of the culture medium in the adherent cell cultivation plate.

[2] = used in human, dental clinical practices; cited from earlier work

Question: For `C[S+]([O-])CCCCN` (stereo not shown) [4-MS amine, 4-methylsulfinylbutyl amine, reference compound], which calcification promoting action ([1]; HOB cells, 21 or 28 days) is on record?
Answer: completely no calcification promoting action

Question: What does the source list for `C[S+]([O-])CCCCN=C=S` (stereo not shown) [4-MSITC, 4-methylsulfinylbutyl isothiocyanate]?
Answer: calcification promoting action ([1]; HOB cells, 21 or 28 days): possess calcification promoting action; relative calcification promoting action (comparison among compounds) [1]: particularly high

Question: For `CS(=O)(=O)CCCCCCN=C=S` [6-MSFITC, 6-methylsulfonylhexyl isothiocyanate], which calcification promoting action ([1]; HOB cells, 21 or 28 days) is on record?
Answer: possess calcification promoting action

Question: And the “relative calcification promoting action (comparison among compounds)” value [1]?
Answer: particularly high; also recorded: higher calcification promoting action than the 4-MSITC

Question: With `C[S+]([O-])CCCCCCCCN=C=S` (stereo not shown) [8-MSITC, 8-methylsulfinyloctyl isothiocyanate] as the compound, how does the calcification promoting action ([1]; HOB cells, 21 or 28 days) read?
Answer: possess calcification promoting action

Question: What about the “relative calcification promoting action (comparison among compounds)” value [1] of the same compound?
Answer: particularly high; also recorded: about the same as the calcification promoting action of the 4-MSITC

Question: Which calcification promoting action ([1]; HOB cells, 21 or 28 days) does the source give for `C=CCN=C=S` [AITC, allyl isothiocyanate, reference compound] here?
Answer: completely no calcification promoting action

Question: What about the calcification action ([1]; range up to 500 μM) of the same compound?
Answer: not exhibited

Question: Which “concentration at which particularly high calcification promoting action was observed” value ([1]; HOB cells, 21 or 28 days, staining) does the source give for `S=C=NCCc1ccccc1` [PITC, phenethyl isothiocyanate] here?
Answer: ≥ 500 µM

Question: And the calcification promoting action ([1]; HOB cells, 21 or 28 days)?
Answer: possess calcification promoting action

Question: With `[Ca+2].[OH-].[OH-]` [calcium hydroxide] as the compound, how does the “normal duration of time until calcification occurs” value [2] read?
Answer: three months

Question: With `CCN[C@H]1C[C@H](C)S(=O)(=O)c2sc(S(N)(=O)=O)cc21` [dorzolamide, reference compound] as the compound, how does the “effect on calcification when used with 6-methylsulfinylhexyl isothiocyanate” value ([1]; dorzolamide, inhibitor of carbonic anhydrase, used with 6-MSITC) read?
Answer: calcification is inhibited
